From patent publication US20230000063A1, “SYSTEM FOR DETECTING EXTRACELLULAR PURINERGIC RECEPTOR LIGAND, AND NON-HUMAN ANIMAL HAVING THE SYSTEM INTRODUCED THEREINTO” (Chugai Seiyaku Kabushiki Kaisha, priority 2019, published 2023) come the findings set out here.

In test [1] the test system is human P2Y11. The experiment in a line: Detection of in vivo ATP signal in P2Y11-split Luc (C-terminal)/Arrestin-split Luc (N-terminal) double knock-in mouse. The note with it: 50 μL of 1 mM ATP + 15 mg/mL VivoGlo Luciferin subcutaneously, IVIS 10 to 20 minutes after, not detected in single-allele or wild type mice. As for the experimental part: To a P2Y11-split Luc (C-terminal)/Arrestin-split Luc (N-terminal) double knock-in mouse, 50 μL of a mixture of ATP at a final concentration of 1 mM and 15 mg/mL VivoGlo Luciferin (Promega #P1043) was subcutaneously administered. A luminescent signal intensity was measured with IVIS Spectrum CT (Perkin Elmer) 10 to 20 minutes after the ATP administration. The measurement was performed under conditions of exposure time of 180 sec, with medium binning, and F/stop of 1, and thus the luminescent signal was analyzed in terms of a physical quantity (photons/sec).

In test [2] the target is T1, human P2Y11 (Homo sapiens, UniProt Q96G91).
T1 construct: expressed in transfected cells; host or cells: cells of the P2Y11-split Luc (C-terminal)/Arrestin-split Luc (N-terminal) double knock-in mouse (Rosa26 locus): in vivo, and a skin fibroblast line derived from it
T1 sequence (Q96G91 1-374): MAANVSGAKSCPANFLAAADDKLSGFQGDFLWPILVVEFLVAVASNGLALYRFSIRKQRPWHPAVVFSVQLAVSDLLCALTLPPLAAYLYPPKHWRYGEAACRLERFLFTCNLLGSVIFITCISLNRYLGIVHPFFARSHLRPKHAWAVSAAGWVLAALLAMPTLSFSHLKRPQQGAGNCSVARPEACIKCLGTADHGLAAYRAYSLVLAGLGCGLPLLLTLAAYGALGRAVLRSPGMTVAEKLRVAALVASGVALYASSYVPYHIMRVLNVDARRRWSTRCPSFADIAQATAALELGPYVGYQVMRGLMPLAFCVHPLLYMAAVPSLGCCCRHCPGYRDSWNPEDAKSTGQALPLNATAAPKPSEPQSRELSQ
The experiment in a line: Detection of in vitro ATP concentration in fibroblasts derived from the double knock-in mouse. In kind it is cell-based. As to conditions: fibroblast from double knock-in mouse; 0 to 1000 μM ATP + VivoGlo Luciferin; IVIS, exposure 180 sec. As for the experimental part: A skin tissue was collected from a P2Y11-split Luc (C-terminal)/Arrestin-split Luc (N-terminal) double knock-in mouse, and was sliced with a scalpel in a culture fluid, and the resultant was covered with a cover glass with a dermis side in contact with a bottom of a culture dish, and was cultured in a D-MEM medium supplemented with 10% FBS and 1×NEAA. Fibroblasts confirmed to have migration/growth of cells were collected by a trypsin treatment, and the resultant was repeatedly passaged to establish a fibroblast cell line.
The fibroblast derived from the P2Y-11 split Luc (C-terminal)/Arrestin-split Luc (N-terminal) double knock-in mouse was seeded in a 24-well culture plate. On the next day, ATP at a final concentration of 0 to 1000 μM and VivoGlo Luciferin (Promega #P1043) were added thereto, and a luminescent signal was detected with IVIS Spectrum CT (Perkin Elmer). The measurement was performed under conditions of exposure time of 180 sec, with medium binning, and F/Stop of 1, and thus the luminescent signal was analyzed in terms of a physical quantity (photons/sec).

Test [3] addresses T1, human P2Y11. The experiment in a line: In vivo imaging of ATP at known concentration in the double knock-in mouse. As to conditions: 50 μL of 0, 1, 2, 4 or 8 mM ATP + 15 mg/mL VivoGlo Luciferin subcutaneously, IVIS 10 to 20 minutes after, exposure 60 sec. As for the experimental part: To a P2Y11-split Luc (C-terminal)/Arrestin-split Luc (N-terminal) double knock-in mouse, 50 μL of a mixture of ATP at a final concentration of 0 mM, 1 mM, 2 mM, 4 mM, or 8 mM and 15 mg/mL VivoGlo Luciferin (Promega #P1043) was subcutaneously administered. A luminescent signal intensity was measured with IVIS Spectrum CT (Perkin Elmer) 10 to 20 minutes after the ATP administration. The measurement was performed under conditions of exposure time of 60 sec, with medium binning, and F/stop of 1, and thus the luminescent signal was analyzed in terms of a physical quantity (photons/sec). […] Thus it was confirmed that the mouse functions as a concentration dependent reporter mouse (FIG. 6 and FIG. 7).

For the compound `Nc1ncnc2c1ncn2[C@@H]1O[C@H](COP(=O)(O)OP(=O)(O)OP(=O)(O)O)[C@@H](O)[C@H]1O` [ATP], in the test on human P2Y11 [1], the “luminescent signal due to the ATP administration” value is reported as “a luminescent signal due to the ATP administration was detected”. Further, the luminescent signal intensity entry on human P2Y11 [2] was “a concentration-dependent signal intensity was detected”; on human P2Y11 [3], “an ATP concentration-dependent signal intensity was detected”.
